2 compounds from patent US20260327628A1, “AN RNA APTAMER THAT BINDS TO ASP7967 OR AN ANALOGUE THEREOF” (priority 2022, published 2026) can be followed below.

For this test, the target named is AC17-4 RNA aptamer. The test is described as follows: Affinity measurement by SPR, AC17-4 immobilized chip. The following applies: for Kd: 25 °C; for affinity for AC17-4 (in words): ASP2905 versus ASP7967. It is filed as binding. The procedure: Affinity measurements of the aptamers with the ligands by SPR were performed as described by Chang et al.^53 with some modifications. Experiments were performed on Biacore T200 (Cytiva) at 25° C. For immobilization of the capture DNA (5′-/5AmMC6/[…]-3′ (SEQ ID NO: 32),/5AmMC6/: 5′ amino modifier C6, IDT), 1×HBS-N (10 mM HEPES, pH 7.4, 150 mM NaCl) was used as the running buffer. CM5 chip surface was washed by two injections of NaOH/NaCl solution (25 mM NaOH, 1 M NaCl) at 20 μl min^−1 for 30 s. Next, a solution containing 200 mM 1-ethyl-3-(3-dimethylaminopropyl) carbodiimide hydrochloride (EDC) and 50 mM N-hydroxysuccinimide (NHS) was injected into all flow cells at 10 μl min^−1 for 7 min to activate the surface carboxylic acid groups. Then, the capture DNA (20 μM) in 10 mM HEPES-KOH buffer (pH 7.5) supplemented with 0.6 mM cetyltrimethylammonium bromide was injected at 5 μl min^−1 for 10 min. The unreacted activated carboxylic acid groups were quenched by an injection of 1 M ethanolamine-HCl (pH 8.5) for 7 min at 10 μl min^−1. To remove the noncovalently adsorbed DNA on the chip surface, NaOH/NaCl solution was injected two times at 20 μl min^−1 for 30 s. The immobilized DNA levels were 2846±284 RU.
The dsDNA templates for in vitro transcription of the aptamers were prepared by primer extension of two oligo DNAs using Q5 High-Fidelity DNA Polymerase (NEB). AC17-4 RNA aptamer and its mutants containing 3′ poly(A) tail (Table 4) were synthesized by in vitro transcription using ScriptMAX Thermo T7 Transcription Kit (TOYOBO) according to the manufacturer's instructions. The reaction products were treated with 2 U TURBO DNase (Thermo Fisher Scientific) for 30 min at 37° C. and purified with RNA Clean & Concentrator-25 Kit (Zymo Research). RNA concentrations were determined by absorbance at 260 nm according to OligoCalc^54. RNA solutions (~3.6 μM) were prepared in water and denatured by heating at 80° C. for 3 min. After cooling at room temperature for few minutes, the RNA solutions were diluted with an equal volume of high salt buffer (10 mM Tris-HCl, pH 7.5, 1 M NaCl, 1 mM EDTA). Stock solutions of ASP2905 and ASP7967 in DMSO (20 mM, fumaric acid adduct, Astellas Pharma, Inc.) were prepared based on the weight. […] An aptamer ligand was injected at 30 μl min^−1 for 120 s to monitor association, and then the dissociation kinetics was monitored for 180 s in the SPR running buffer. […] The raw data were analysed by Biacore T200 Evaluation Software 1.0 using 1:1 Langmuir interaction model. […] Dissociation constant (KD) was determined from the ratio of the association and the dissociation rate constants (KD=koff/kon) or by equilibrium analysis. […]
Background: In SPR one partner is held on a chip, and binding of the other changes the refractive index at the surface.

By Kd is commonly meant the free concentration of one partner at which half of the binding sites on the other are occupied at equilibrium, for simple one-to-one binding.

Regarding `Fc1ccc(Nc2nc(NCc3ncccn3)nc(Nc3ccccc3)n2)cc1` [ASP2905, reference compound], the affinity, expressed as Kd, was 7.7 nM and the “affinity for AC17-4 (in words)” value is “comparable affinity”.

For `Fc1ccc(Nc2nc(NCc3ncccn3)nc(Nc3ccc(F)cc3)n2)cc1` [ASP7967], the Kd is 12 nM and the “affinity for AC17-4 (in words)” value is listed as “comparable affinity”.
